# Measured values reported in patent EP4516309A1, “CRHR1 AGONISTS FOR USE IN THE TREATMENT OF SOCIAL ANXIETY DISORDERS” (Consejo Superior de Investigaciones Cientificas, priority 2023, dated 2025).
# How the values were obtained:
# inhibitory DREADD = target: T1, inhibitory DREADD (Homo sapiens, UniProt P08173, A203G/Y113C); test: Repetitive social presentation test with chemogenetic silencing of ILA CRH cells; assay type: in vivo, CRH-Cre mice; settings: CNO; iDREADD in ILA CRH cells
# T1 construct: host or cells: ILA CRH+ neurons of CRH-Cre mice, Cre-dependent AAV2/8 transduction in vivo
# T1 sequence (P08173 1-479 Y113C/A203G): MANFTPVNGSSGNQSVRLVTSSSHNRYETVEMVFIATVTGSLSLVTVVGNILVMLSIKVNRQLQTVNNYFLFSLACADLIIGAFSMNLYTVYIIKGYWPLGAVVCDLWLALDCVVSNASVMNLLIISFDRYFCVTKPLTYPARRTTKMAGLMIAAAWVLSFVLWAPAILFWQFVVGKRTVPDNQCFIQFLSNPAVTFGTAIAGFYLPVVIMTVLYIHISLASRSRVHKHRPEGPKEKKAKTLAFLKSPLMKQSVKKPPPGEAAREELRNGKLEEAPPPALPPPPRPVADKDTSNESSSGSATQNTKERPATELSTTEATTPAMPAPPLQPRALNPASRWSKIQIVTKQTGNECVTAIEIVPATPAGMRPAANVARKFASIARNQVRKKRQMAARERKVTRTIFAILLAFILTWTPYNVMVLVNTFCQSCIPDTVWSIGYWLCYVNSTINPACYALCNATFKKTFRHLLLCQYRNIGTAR
# Experimental: (§1) Injection coordinates were the following (in mm from Bregma): AP: 1.65, ML: ±0.1, DV: -2.6. Injections were done bilaterally with 100 nl injected per site. AAV2/DJ hSyn.FLEX.mGFP.2A.Synatophysin-mRuby (Addgene #71760 prepared by the Stanford University vector core #1930), AAV2/8 hSyn.DIO.hM4D(Gi)-mCherry (Addgene #44362-AAV8), AAV2/8 hSyn.DIO.mCherry (Addgene #50459-AAV8), AAV2/5-hSyn-DIO-hM3D(Gq)-mCherry (Addgene, #44361-AAV5), AAV2/5 hsyn.DIO.mCherry (Addgene #50459-AAV5), AAV2/1 syn.FLEX.GCaMP6f.WPRE.SV40 (Addgene #100833-AAV1), AAV2/9 CMV-DIO-(mCherry-U6)-shRNA(anti-Crh) (VTA brain), AAV2/9 CMV-DIO-(mCherry-U6)-shRNA(scrambled) (VTA brain), AAV2/9 hSyn.FLEX.dsRed-shRNA(Vgat) (Addgene #67845), AAV 2/9 hSyn-flex-dsRed-shRNA(scrambled) (Addgene #71383), AAV2/2 CAG.FLEX.ArchT-tdTomato (Addgene #28305 prepared by the University of North Carolina vector core) and AAV2/2 CAG.FLEX.tdTomato (Addgene #28306 prepared by the University of North Carolina vector core) were injected into the ILA of CRH-Cre mice. Viruses expressed for a minimum of 2 weeks.
# (§2) Repetitive social presentation test. […] Films were scored offline for social interaction by a trained observer blind to the experimental condition. Sniffing of any part of the body, allo-grooming and close following counted as social interaction. […]
# excitatory DREADD = target: T2, excitatory DREADD (Homo sapiens, UniProt P20309, A239G/Y149C); test: Repetitive social presentation test with chemogenetic activation of ILA CRH cells; assay type: in vivo, CRH-Cre mice; settings: CNO; excitatory DREADD in ILA CRH neurons
# T2 construct: host or cells: ILA CRH+ neurons of CRH-Cre mice, Cre-dependent AAV2/5 transduction in vivo
# T2 sequence (P20309 whole entry Y149C/A239G): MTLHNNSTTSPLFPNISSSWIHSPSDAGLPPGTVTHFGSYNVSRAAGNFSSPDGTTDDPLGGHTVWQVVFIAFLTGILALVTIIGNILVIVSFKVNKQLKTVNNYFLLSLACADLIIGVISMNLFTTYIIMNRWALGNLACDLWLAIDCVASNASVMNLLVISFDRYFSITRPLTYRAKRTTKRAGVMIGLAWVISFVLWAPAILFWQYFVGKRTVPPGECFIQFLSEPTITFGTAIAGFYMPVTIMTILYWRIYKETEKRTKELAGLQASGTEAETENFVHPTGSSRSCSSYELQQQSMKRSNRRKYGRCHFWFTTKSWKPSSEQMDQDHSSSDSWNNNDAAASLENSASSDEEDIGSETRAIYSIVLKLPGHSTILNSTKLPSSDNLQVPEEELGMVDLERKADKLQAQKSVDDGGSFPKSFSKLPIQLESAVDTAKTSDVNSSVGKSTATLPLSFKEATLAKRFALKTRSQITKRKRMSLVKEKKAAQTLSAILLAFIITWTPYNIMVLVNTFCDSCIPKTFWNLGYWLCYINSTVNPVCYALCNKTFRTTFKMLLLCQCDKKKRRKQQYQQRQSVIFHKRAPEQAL
# Experimental: as §1, §2
smiles,measurement,setting,value
"C[N+]1([O-])CCN(C2=Nc3cc(Cl)ccc3Nc3ccccc32)CC1 [CNO, clozapine N-oxide]",interaction time during the repeated presentations,inhibitory DREADD,showed no decrease in interaction time
same,decrease in social interaction,excitatory DREADD,slightly facilitated
